Square brackets hold non-standard residues; d marks the D form. Peptide text beside a SMILES is read from it. * marks the point of attachment. X1 = C=CCOC(=O)[C@]12CC[C@@H](C(=C)C)[C@@H]1[C@H]1CC[C@@H]3[C@@]4(C)CC[C@H](OC(=O)CCc5cn(CC(=O)*)nn5)C(C)(C)[C@@H]4CC[C@@]3(C)[C@]1(C)CC2; X10 = CC1(C)CC[C@]2(C(=O)OCc3cn(CC(=O)*)nn3)CC[C@]3(C)C(=CC[C@@H]4[C@@]5(C)CC[C@H](O)C(C)(C)[C@@H]5CC[C@]43C)[C@@H]2C1; βAla = NCCC(=O)O
Legend:
[1] = Inhibition of HIV1 gp41-induced cell-cell fusion between viral envelope expressing human HL2/3 cells to CD4/CCR5 receptor expressing TZM-bl cells compound preincubated for 1 hr measured after 48 hrs by prime/wash assay
[2] = Inhibition of HIV1 gp41-induced cell-cell fusion between viral envelope expressing human HL2/3 cells to CD4/CCR5 receptor expressing TZM-bl cells after 6 to 8 hrs by luciferase assay
[3] = Inhibition of HIV1 gp41-induced cell-cell fusion between viral envelope expressing human HL2/3 cells to CD4/CCR5 receptor expressing TZM-bl cells compound preincubated for 1 hr followed by wash out measured after 48 hrs by prime/wash assay

Row | EC50 [2] [nM] | Compound | EC50 [1] [nM] | EC50 [3] [nM]
1 | 3.9 | C=CCOC(=O)[C@]12CC[C@@H](C(=C)C)[C@@H]1[C@H]1CC[C@@H]3[C@@]4(C)CC[C@H](OC(=O)CCc5cn(CC(=O)NCCCC[C@H](NC(=O)CCNC(=O)[C@H](CC(C)C)NC(=O)[C@H](CC(C)C)NC(=O)[C@H](CCC(=O)O)NC(=O)[C@H](CCC(N)=O)NC(=O)[C@H](CCC(=O)O)NC(=O)[C@H](CC(N)=O)NC(=O)[C@H](CCCCN)NC(=O)[C@H](CCC(=O)O)NC(=O)[C@H](CCC(N)=O)NC(=O)[C@H](CCC(N)=O)NC(=O)[C@H](CC(N)=O)NC(=O)[C@H](CCC(N)=O)NC(=O)[C@H](CO)NC(=O)[C@H](CCC(=O)O)NC(=O)[C@H](CCC(=O)O)NC(=O)[C@@H](NC(=O)[C@H](CC(C)C)NC(=O)[C@H](CO)NC(=O)[C@H](Cc6cnc[nH]6)NC(=O)[C@@H](NC(=O)[C@H](CC(C)C)NC(=O)[C@H](CO)NC(=O)[C@@H](NC(=O)[C@H](Cc6ccc(O)cc6)NC(=O)[C@H](CC(N)=O)NC(=O)[C@H](CC(N)=O)NC(C)=O)[C@@H](C)O)[C@@H](C)CC)[C@@H](C)CC)C(N)=O)nn5)C(C)(C)[C@@H]4CC[C@@]3(C)[C@]1(C)CC2 (Ac-NNYTSLIHSLIEESQNQQEKNEQELL[βAla]K(X1)-NH2) | 13 | 
2 | 176 | CC[C@H](C)[C@H](NC(=O)[C@H](CC(C)C)NC(=O)[C@H](CO)NC(=O)[C@H](Cc1cnc[nH]1)NC(=O)[C@@H](NC(=O)[C@H](CC(C)C)NC(=O)[C@H](CO)NC(=O)[C@@H](NC(=O)[C@H](Cc1ccc(O)cc1)NC(=O)[C@H](CC(N)=O)NC(=O)[C@H](CC(N)=O)NC(=O)CCNC(=O)Cn1cc(COC(=O)[C@]23CCC(C)(C)C[C@H]2C2=CC[C@@H]4[C@@]5(C)CC[C@H](O)C(C)(C)[C@@H]5CC[C@@]4(C)[C@]2(C)CC3)nn1)[C@@H](C)O)[C@@H](C)CC)C(=O)N[C@@H](CCC(=O)O)C(=O)N[C@@H](CCC(=O)O)C(=O)N[C@@H](CO)C(=O)N[C@@H](CCC(N)=O)C(=O)N[C@@H](CC(N)=O)C(=O)N[C@@H](CCC(N)=O)C(=O)N[C@@H](CCC(N)=O)C(=O)N[C@@H](CCC(=O)O)C(=O)N[C@@H](CCCCN)C(=O)N[C@@H](CC(N)=O)C(=O)N[C@@H](CCC(=O)O)C(=O)N[C@@H](CCC(N)=O)C(=O)N[C@@H](CCC(=O)O)C(=O)N[C@@H](CC(C)C)C(=O)N[C@@H](CC(C)C)C(N)=O ({X10-βAla}-NNYTSLIHSLIEESQNQQEKNEQELL-NH2) |  | 

Row | Compound | EC50 [2] [nM] | EC50 [1] [nM] | EC50 [3] [nM]
3 | enfuvirtide | 10 | 14 | 542

From BindingDB's records for doi:10.1021/jm500763m (Beijing Institute of Pharmacology & Toxicology, 2014)
